Read-outs that look alike come from different tables or passages of the source.
Assays:
Format in all cases: cell-based
[1] = target: T1, α7^L131G,Q139L,Y217F-5HT3 V154I, R155Y, W156N, S172A (Homo sapiens, UniProt P36544, L131G/M226I/Q139L/R155Y/S172A/T225I/V154I/W156N/Y217F); experiment: EC50 dose response, PSAM4-5HT3 with additional mutations; settings: read-out: EC50s (SEM) for additional mutations of α7^L131G, Q139L, Y217F -5HT3
T1 construct: expressed in transfected cells; host or cells: HEK 293

[2] = target: T2, α7^L131G,Q139L,Y217F-5HT3 V154I, R155Y, W156N, S172V (Homo sapiens, UniProt P36544, L131G/M226I/Q139L/R155Y/S172V/T225I/V154I/W156N/Y217F); experiment: as above; settings: read-out: EC50s (SEM) for additional mutations of α7^L131G, Q139L, Y217F -5HT3
T2 construct: expressed in transfected cells; host or cells: HEK 293
T2 sequence (P36544 with tags, fused parts or gaps L131G/Q139L/V154I/R155Y/W156N/S172V/Y217F/T225I/M226I limits assumed): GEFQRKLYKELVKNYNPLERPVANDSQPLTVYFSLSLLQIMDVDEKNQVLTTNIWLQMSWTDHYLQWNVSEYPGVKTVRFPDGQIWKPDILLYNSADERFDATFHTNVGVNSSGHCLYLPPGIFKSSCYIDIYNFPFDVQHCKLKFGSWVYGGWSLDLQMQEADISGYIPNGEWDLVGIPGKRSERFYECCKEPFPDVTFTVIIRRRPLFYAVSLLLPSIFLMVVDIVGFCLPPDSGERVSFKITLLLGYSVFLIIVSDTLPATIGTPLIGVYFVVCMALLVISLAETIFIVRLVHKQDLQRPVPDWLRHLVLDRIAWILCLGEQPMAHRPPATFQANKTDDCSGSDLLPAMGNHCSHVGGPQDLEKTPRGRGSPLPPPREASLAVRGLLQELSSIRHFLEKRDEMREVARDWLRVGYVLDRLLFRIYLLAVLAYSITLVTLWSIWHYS

[3] = target: T3, α7^L131G,Q139L,Y217F-5HT3 S172I (Homo sapiens, UniProt P36544, L131G/M226I/Q139L/S172I/T225I/Y217F); experiment: as above; settings: additional mutation S172I; read-out: EC50s (SEM) for additional mutations of α7^L131G, Q139L, Y217F -5HT3
T3 construct: expressed in transfected cells; host or cells: HEK 293

[4] = target: T4, α7^L131G,Q139L,Y217F-5HT3 H163T, S172A (Homo sapiens, UniProt P36544, H163T/L131G/M226I/Q139L/S172A/T225I/Y217F); experiment: as above; settings: read-out: EC50s (SEM) for additional mutations of α7^L131G, Q139L, Y217F -5HT3
T4 construct: expressed in transfected cells; host or cells: HEK 293

[5] = target: T5, α7^L131G,Q139L,Y217F-5HT3 H163T, S172V (Homo sapiens, UniProt P36544, H163T/L131G/M226I/Q139L/S172V/T225I/Y217F); experiment: as above; settings: read-out: EC50s (SEM) for additional mutations of α7^L131G, Q139L, Y217F -5HT3
T5 construct: expressed in transfected cells; host or cells: HEK 293

[6] = target: T6, α7^L131G,Q139L,Y217F-5HT3 H163K (Homo sapiens, UniProt P36544, H163K/L131G/M226I/Q139L/T225I/Y217F); experiment: as above; settings: additional mutation H163K; read-out: EC50s (SEM) for additional mutations of α7^L131G, Q139L, Y217F -5HT3
T6 construct: expressed in transfected cells; host or cells: HEK 293

[7] = target: T7, α7^L131G,Q139L,Y217F-5HT3 H163T (Homo sapiens, UniProt P36544, H163T/L131G/M226I/Q139L/T225I/Y217F); experiment: as above; settings: additional mutation H163T; read-out: EC50s (SEM) for additional mutations of α7^L131G, Q139L, Y217F -5HT3
T7 construct: expressed in transfected cells; host or cells: HEK 293
T7 sequence (P36544 with tags, fused parts or gaps L131G/Q139L/H163T/Y217F/T225I/M226I limits assumed): as the sequence (P36544 with tags, fused parts or gaps L131G/Q139L/V154I/R155Y/W156N/S172V/Y217F/T225I/M226I limits assumed) above, with I132V, Y133R, N134W, H141T, V150S counted along it

[8] = target: T8, α7^L131G,Q139L,Y217F-5HT3 S172V (Homo sapiens, UniProt P36544, L131G/M226I/Q139L/S172V/T225I/Y217F); experiment: as above; settings: additional mutation S172V; read-out: EC50s (SEM) for additional mutations of α7^L131G, Q139L, Y217F -5HT3
T8 construct: expressed in transfected cells; host or cells: HEK 293

[9] = target: T9, α7^L131G,Q139L,Y217F-5HT3 H163V (Homo sapiens, UniProt P36544, H163V/L131G/M226I/Q139L/T225I/Y217F); experiment: as above; settings: additional mutation H163V; read-out: EC50s (SEM) for additional mutations of α7^L131G, Q139L, Y217F -5HT3
T9 construct: expressed in transfected cells; host or cells: HEK 293

[10] = target: T10, α7^L131G,Q139L,Y217F-5HT3 H163R (Homo sapiens, UniProt P36544, H163R/L131G/M226I/Q139L/T225I/Y217F); experiment: as above; settings: additional mutation H163R; read-out: EC50s (SEM) for additional mutations of α7^L131G, Q139L, Y217F -5HT3
T10 construct: expressed in transfected cells; host or cells: HEK 293

[11] = target: T11, α7^L131G,Q139L,Y217F-5HT3 H163F (Homo sapiens, UniProt P36544, H163F/L131G/M226I/Q139L/T225I/Y217F); experiment: as above; settings: additional mutation H163F; read-out: EC50s (SEM) for additional mutations of α7^L131G, Q139L, Y217F -5HT3
T11 construct: expressed in transfected cells; host or cells: HEK 293
T11 sequence (P36544 with tags, fused parts or gaps L131G/Q139L/H163F/Y217F/T225I/M226I limits assumed): as the sequence (P36544 with tags, fused parts or gaps L131G/Q139L/V154I/R155Y/W156N/S172V/Y217F/T225I/M226I limits assumed) above, with I132V, Y133R, N134W, H141F, V150S counted along it

[12] = target: T12, α7^L131G,Q139L,Y217F-5HT3 W156N, H163T (Homo sapiens, UniProt P36544, H163T/L131G/M226I/Q139L/T225I/W156N/Y217F); experiment: as above; settings: read-out: EC50s (SEM) for additional mutations of α7^L131G, Q139L, Y217F -5HT3
T12 construct: expressed in transfected cells; host or cells: HEK 293
T12 sequence (P36544 with tags, fused parts or gaps L131G/Q139L/W156N/H163T/Y217F/T225I/M226I limits assumed): as the sequence (P36544 with tags, fused parts or gaps L131G/Q139L/V154I/R155Y/W156N/S172V/Y217F/T225I/M226I limits assumed) above, with I132V, Y133R, H141T, V150S counted along it

[13] = target: T13, α7^L131G,Q139L,Y217F-5HT3 H163A (Homo sapiens, UniProt P36544, H163A/L131G/M226I/Q139L/T225I/Y217F); experiment: as above; settings: additional mutation H163A; read-out: EC50s (SEM) for additional mutations of α7^L131G, Q139L, Y217F -5HT3
T13 construct: expressed in transfected cells; host or cells: HEK 293
T13 sequence (P36544 with tags, fused parts or gaps L131G/Q139L/H163A/Y217F/T225I/M226I limits assumed): as the sequence (P36544 with tags, fused parts or gaps L131G/Q139L/V154I/R155Y/W156N/S172V/Y217F/T225I/M226I limits assumed) above, with I132V, Y133R, N134W, H141A, V150S counted along it

[14] = target: T14, PSAM4-5HT3 (α7-5HT3^L131G,Q139L,Y217F) (Homo sapiens, UniProt P36544, L131G/M226I/Q139L/T225I/Y217F); experiment: EC50 dose response of LGIC ligands on PSAM4-5HT3; settings: read-out: EC50s (SEM) for additional mutations of α7^L131G, Q139L, Y217F -5HT3
T14 construct: expressed in transfected cells; host or cells: HEK 293
T14 sequence (P36544 with tags, fused parts or gaps L131G/Q139L/Y217F/T225I/M226I limits assumed): as the sequence (P36544 with tags, fused parts or gaps L131G/Q139L/V154I/R155Y/W156N/S172V/Y217F/T225I/M226I limits assumed) above, with I132V, Y133R, N134W, V150S counted along it

[15] = target: T15, α7-5HT3 L131G, Q139L, Y217H (Homo sapiens, UniProt P36544, L131G/M226I/Q139L/T225I/Y217H); experiment: EC50 dose response, α7-5HT3 mutant; settings: read-out: EC50s (SEM) for additional mutations of α7^L131G, Q139L, Y217F -5HT3
T15 construct: expressed in transfected cells; host or cells: HEK 293

[16] = target: T16, α7^L131G,Q139L,Y217F-5HT3 S172A (Homo sapiens, UniProt P36544, L131G/M226I/Q139L/S172A/T225I/Y217F); experiment: EC50 dose response, PSAM4-5HT3 with additional mutations; settings: additional mutation S172A; read-out: EC50s (SEM) for additional mutations of α7^L131G, Q139L, Y217F -5HT3
T16 construct: expressed in transfected cells; host or cells: HEK 293
T16 sequence (P36544 with tags, fused parts or gaps L131G/Q139L/S172A/Y217F/T225I/M226I limits assumed): as the sequence (P36544 with tags, fused parts or gaps L131G/Q139L/V154I/R155Y/W156N/S172V/Y217F/T225I/M226I limits assumed) above, with I132V, Y133R, N134W, V150A counted along it

[17] = target: T17, α7-5HT3 L131G, Q139L, Y217N (Homo sapiens, UniProt P36544, L131G/M226I/Q139L/T225I/Y217N); experiment: EC50 dose response, α7-5HT3 mutant; settings: read-out: EC50s (SEM) for additional mutations of α7^L131G, Q139L, Y217F -5HT3
T17 construct: 5HT3 ion pore domain (fusion partner); expressed in transfected cells

[18] = target: T18, α7^L131G,Q139L,Y217F-5HT3 H163S (Homo sapiens, UniProt P36544, H163S/L131G/M226I/Q139L/T225I/Y217F); experiment: EC50 dose response, PSAM4-5HT3 with additional mutations; settings: additional mutation H163S; read-out: EC50s (SEM) for additional mutations of α7^L131G, Q139L, Y217F -5HT3
T18 construct: expressed in transfected cells; host or cells: HEK 293
T18 sequence (P36544 with tags, fused parts or gaps L131G/Q139L/H163S/Y217F/T225I/M226I limits assumed): as the sequence (P36544 with tags, fused parts or gaps L131G/Q139L/V154I/R155Y/W156N/S172V/Y217F/T225I/M226I limits assumed) above, with I132V, Y133R, N134W, H141S, V150S counted along it

[19] = target: T19, α7^L131G,Q139L,Y217F-5HT3 V154I, R155Y, W156N (Homo sapiens, UniProt P36544, L131G/M226I/Q139L/R155Y/T225I/V154I/W156N/Y217F); experiment: as above; settings: read-out: EC50s (SEM) for additional mutations of α7^L131G, Q139L, Y217F -5HT3
T19 construct: expressed in transfected cells; host or cells: HEK 293

[20] = target: T20, α7^L131G,Q139L,Y217F-5HT3 V154L, R155Y, W156Q (Homo sapiens, UniProt P36544, L131G/M226I/Q139L/R155Y/T225I/V154L/W156Q/Y217F); experiment: as above; settings: read-out: EC50s (SEM) for additional mutations of α7^L131G, Q139L, Y217F -5HT3
T20 construct: expressed in transfected cells; host or cells: HEK 293

[21] = target: T21, α7-5HT3 L131G, Q139L, W171Y (Homo sapiens, UniProt P36544, L131G/M226I/Q139L/T225I/W171Y); experiment: EC50 dose response, α7-5HT3 mutant; settings: read-out: EC50s (SEM) for additional mutations of α7^L131G, Q139L, Y217F -5HT3
T21 construct: expressed in transfected cells; host or cells: HEK 293

[22] = target: T22, α7^L131G,Q139L,Y217F-5HT3 H163N (Homo sapiens, UniProt P36544, H163N/L131G/M226I/Q139L/T225I/Y217F); experiment: EC50 dose response, PSAM4-5HT3 with additional mutations; settings: additional mutation H163N; read-out: EC50s (SEM) for additional mutations of α7^L131G, Q139L, Y217F -5HT3
T22 construct: expressed in transfected cells; host or cells: HEK 293
T22 sequence (P36544 with tags, fused parts or gaps L131G/Q139L/H163N/Y217F/T225I/M226I limits assumed): as the sequence (P36544 with tags, fused parts or gaps L131G/Q139L/V154I/R155Y/W156N/S172V/Y217F/T225I/M226I limits assumed) above, with I132V, Y133R, N134W, H141N, V150S counted along it

[23] = target: T23, α7-5HT3 L131G, Q139L, Y217V (Homo sapiens, UniProt P36544, L131G/M226I/Q139L/T225I/Y217V); experiment: EC50 dose response, α7-5HT3 mutant; settings: read-out: EC50s (SEM) for additional mutations of α7^L131G, Q139L, Y217F -5HT3
T23 construct: 5HT3 ion pore domain (fusion partner); expressed in transfected cells; HEK 293 is named only for the electrophysiology

[24] = target: T24, α7^L131G,Q139L,Y217F-5HT3 H163D (Homo sapiens, UniProt P36544, H163D/L131G/M226I/Q139L/T225I/Y217F); experiment: EC50 dose response, PSAM4-5HT3 with additional mutations; settings: additional mutation H163D; read-out: EC50s (SEM) for additional mutations of α7^L131G, Q139L, Y217F -5HT3
T24 construct: expressed in transfected cells; host or cells: HEK 293
T24 sequence (P36544 with tags, fused parts or gaps L131G/Q139L/H163D/Y217F/T225I/M226I limits assumed): as the sequence (P36544 with tags, fused parts or gaps L131G/Q139L/V154I/R155Y/W156N/S172V/Y217F/T225I/M226I limits assumed) above, with I132V, Y133R, N134W, H141D, V150S counted along it

[25] = target: T25, α7-5HT3 L131G, Q139L, Y217A (Homo sapiens, UniProt P36544, L131G/M226I/Q139L/T225I/Y217A); experiment: EC50 dose response, α7-5HT3 mutant; settings: read-out: EC50s (SEM) for additional mutations of α7^L131G, Q139L, Y217F -5HT3
T25 construct: expressed in transfected cells; host or cells: HEK 293

[26] = target: T26, α7-5HT3 L131G, Q139L, W171F (Homo sapiens, UniProt P36544, L131G/M226I/Q139L/T225I/W171F); experiment: EC50 dose response, α7-5HT3 mutant; settings: read-out: EC50s (SEM) for additional mutations of α7^L131G, Q139L, Y217F -5HT3
T26 construct: expressed in transfected cells; host or cells: HEK 293

[27] = target: T27, α7^L131G,Q139L,Y217F-5HT3 W156N (Homo sapiens, UniProt P36544, L131G/M226I/Q139L/T225I/W156N/Y217F); experiment: cell-based
T27 construct: expressed in transfected cells; host or cells: HEK 293
T27 sequence (P36544 with tags, fused parts or gaps L131G/Q139L/W156N/Y217F/T225I/M226I limits assumed): as the sequence (P36544 with tags, fused parts or gaps L131G/Q139L/V154I/R155Y/W156N/S172V/Y217F/T225I/M226I limits assumed) above, with I132V, Y133R, V150S counted along it

[28] = PSAM4-5HT3 (no additional mutation)
[29] = line L131G, Q139L, Y217F (same values as PSAM4-5HT3 line)

Row | Compound | EC50 [1] [µM] | EC50 [2] [µM] | EC50 [3] [µM] | EC50 [4] [µM] | EC50 [5] [µM] | EC50 [6] [µM] | EC50 [7] [µM] | EC50 [8] [µM] | EC50 [9] [µM] | EC50 [10] [µM] | EC50 [11] [µM] | EC50 [12] [µM] | EC50 [13] [µM] | EC50 [14, 28] [µM] | EC50 [14, 29] [µM] | EC50 [15] [µM] | EC50 [16] [µM] | EC50 [18] [µM] | EC50 [19] [µM] | EC50 [20] [µM] | further results
1 | CCCOc1cnc2cc3c(cc2n1)C1CNCC3C1 (stereo not drawn) [uPSEM 817] | 0.012 | 0.013 | 0.018 | 0.0078 | 0.0063 | 0.01 | 0.012 | 0.006 | 0.009 | 0.0055 | 0.0082 | 0.013 | 0.053 | 0.0041 | 0.0041 | 0.016 | 0.007 | 0.0081 | 0.013 | 0.017 | EC50 [17]: > 0.1 µM; EC50 [21]: > 0.1 µM; EC50 [22]: 0.0091 µM; EC50 [23]: 0.024 µM; EC50 [24]: 0.0025 µM; EC50 [25]: 0.0092 µM; EC50 [26]: > 0.1 µM; EC50 ([27]; additional mutation W156N, read-out: EC50s (SEM) for additional mutations of α7^L131G, Q139L, Y217F -5HT3): 0.015 µM
2 | C[N+](C)(C)CCO [Choline, choline, reference compound] | 680 | 910 | 1110 | 1020 | 1330 | 168 | 330 | 895 | 508 | 153 | 230 | 646 | 219 | 143 | 143 | 2060 | 349 | 245 | 330 | 94 | EC50 [22]: 107 µM; EC50 [23]: 1160 µM; EC50 [24]: 361 µM; EC50 [25]: 832 µM; EC50 [26]: 177 µM; EC50 [27]: 172 µM

Reference: patent publication US20250145687A1, “MODIFIED LIGAND-GATED ION CHANNELS AND METHODS OF USE” (Howard Hughes Medical Institute, priority 2022, published 2025)
